Experimental data published in US5800838A, “Composition that inhibits or destroys at least one unicellular living organism containing fluorine F- and Lithium li+” (priority 1987, dated 1998).
Read-outs that look alike come from different tables or passages of the source.

Assays:
Chlamydia trachomatis = test: MIC on Chlamydia trachomatis strains; type: cell-based; conditions: listed test strain, read-out: MIC of benzalkonium chloride
Procedure: The test was performed on 12 strains of Chlamydia trachomatis originating from hospital sources, in particular from cases of urethritis. All the trials were performed in duplicate, and the results compared with those for a listed control strain.
The MIC corresponds to the concentration of benzalkonium chloride at and above which the average number of colonies in Petri dishes containing the active substance is less than one tenth of the average number of colonies in Petri dishes without active substance.

spermatozoa = conditions: in the initial 1 millilitre, cited from earlier work
[1] = system: Mycobacterium smegmatis CNCM 7 326; test: MIC, French standard NF T 72-150, AFNOR strain; type: cell-based; conditions: in the presence of LiF at 1 mg/l
Procedure: (§1) French standard NF T 72-150, March 1981, was followed by the trials carried out. The trials were performed on the strains defined by the AFNOR standard.
(§2) The results obtained on the strains defined by the AFNOR standard for benzalkonium chloride alone and for benzalkonium chloride with the addition of 1 mg/l of sodium fluoride were already given in unpublished European Patent Application 86/402,716.4, and have been recorded again.

[2] = system: Streptococcus faecalis CNCM 5 855; test: MIC, French standard NF T 72-150, AFNOR strain; type: cell-based; conditions: in the presence of LiF at 1 mg/l
Procedure: as §1, §2

[3] = system: Staphylococcus aureus Oxford strain CNCM 53 154; test: MIC, French standard NF T 72-150, AFNOR strain; type: cell-based; conditions: in the presence of LiF at 1 mg/l
Procedure: as §1, §2

[4] = system: Pseudomonas aeruginosa CNCM A 22; test: MIC, French standard NF T 72-150, AFNOR strain; type: cell-based; conditions: in the presence of LiF at 1 mg/l
Procedure: as §1, §2

[5] = system: Escherichia coli CNCM 54 127; test: MIC, French standard NF T 72-150, AFNOR strain; type: cell-based; conditions: in the presence of LiF at 1 mg/l
Procedure: as §1, §2

Escherichia coli = test: MIC on hospital strains (Example 13); type: cell-based; conditions: read-out: MIC of benzalkonium chloride
Procedure: (§3) The same trials as in example 12 were carried out on hospital strains of various microorganisms.

Trichomonas vaginalis = test: MIC on hospital strains (Example 13); type: cell-based; conditions: read-out: MIC of benzalkonium chloride
Procedure: as §3

Bacillus subtilis = test: MIC on hospital strains (Example 13); type: cell-based; conditions: read-out: MIC of benzalkonium chloride
Procedure: as §3

Sarcina lutea = test: MIC on hospital strains (Example 13); type: cell-based; conditions: Micrococcus luteus, read-out: MIC of benzalkonium chloride
Procedure: as §3

Gardenerella vaginalis = test: MIC on hospital strains (Example 13); type: cell-based; conditions: read-out: MIC of benzalkonium chloride
Procedure: as §3

Candida albicans = test: MIC on hospital strains (Example 13); type: cell-based; conditions: read-out: MIC of benzalkonium chloride
Procedure: as §3

Streptococcus faecalis = test: MIC on hospital strains (Example 13); type: cell-based; conditions: Enterococcus faecalis, read-out: MIC of benzalkonium chloride
Procedure: as §3

Neisseria gonorrhoea = test: MIC on hospital strains (Example 13); type: cell-based; conditions: read-out: MIC of benzalkonium chloride
Procedure: as §3

Ducrey's bacillus = test: MIC on hospital strains (Example 13); type: cell-based; conditions: read-out: MIC of benzalkonium chloride
Procedure: as §3

Staphylococcus aureus = test: MIC on hospital strains (Example 13); type: cell-based; conditions: read-out: MIC of benzalkonium chloride
Procedure: as §3

Aspergillus niger = test: MIC on hospital strains (Example 13); type: cell-based; conditions: read-out: MIC of benzalkonium chloride
Procedure: as §3

[6] = system: Streptococcus faecalis CNCM 5 855; conditions: cited from earlier work
[7] = system: Mycobacterium smegmatis CNCM 7 326; conditions: cited from earlier work
Proteus vulgaris = test: MIC on hospital strains of pyogenic microorganisms; type: cell-based; conditions: read-out: MIC of the primary active principle
Description: (§4) The methodology employed is that described by Professor F. CATALAN, P. SEDNAOUI, A. MILOVANOVIC et al., Institut A. FOURNIER, PARIS.
(§5) With the same methodology, the following results were observed on hospital strains of pyogenic microorganisms, namely […] streptococcus, Proteus vulgaris, Haemophilus influenzae: […]

Haemophilus influenzae = test: MIC on hospital strains of pyogenic microorganisms; type: cell-based; conditions: read-out: MIC of the primary active principle
Description: as §4, §5

[8] = system: β-Haemolytic streptococcus; test: MIC on hospital strains of pyogenic microorganisms; type: cell-based; conditions: read-out: MIC of the primary active principle
Description: as §4, §5

[9] = in the presence of LiF at 1 ppm
[10] = in the presence of NaF at 1 mg/l
[11] = in the presence of LiF at 1 mg/l and of KATHON CG preservative at 0.4 mg/l

For CCCCCCCCCCCCCC[N+](C)(C)Cc1ccccc1.[Cl-] [benzalkonium chloride, myristyldimethylbenzylammonium chloride], the MIC (Chlamydia trachomatis; 1 mg/ml added (lithium fluoride)) is listed as 13 µg/mL, the MIC (Chlamydia trachomatis; alone) is listed as 18 µg/mL and the “MIC of benzalkonium chloride” value (spermatozoa; alone) is listed as 0.006%. The “MIC of benzalkonium chloride” value (spermatozoa; with 1 ml solution containing 0.0001% F^- anions) was 0.002%, the “MIC of benzalkonium chloride” value [1] was 22 µg/mL and the “MIC of benzalkonium chloride” value [2] was 2.8 µg/mL. For the same compound, the “MIC of benzalkonium chloride” value [3] was 1.1 µg/mL, the “MIC of benzalkonium chloride” value [4] was 15 µg/mL and the “MIC of benzalkonium chloride” value [5] was 2 µg/mL. It also gave an MIC (Escherichia coli; alone) of 8 µg/mL, an MIC (Escherichia coli; [9]) of 6.5 µg/mL and an MIC (Trichomonas vaginalis; alone) of 1.3 µg/mL. It also gave an MIC (Trichomonas vaginalis; [9]) of 0.9 µg/mL, an MIC (Bacillus subtilis; alone) of 8 µg/mL and an MIC (Bacillus subtilis; [9]) of 5.4 µg/mL. For the same compound, the MIC (Sarcina lutea; alone) was 11 µg/mL, the MIC (Sarcina lutea; [9]) was 7.5 µg/mL and the MIC (Gardenerella vaginalis; alone) was 50 µg/mL. For the same compound, the MIC (Gardenerella vaginalis; [9]) was 41 µg/mL, the MIC (Candida albicans; alone) was 50 µg/mL and the MIC (Candida albicans; [9]) was 35 µg/mL. It also gave an MIC (Streptococcus faecalis; alone) of 15 µg/mL, an MIC (Streptococcus faecalis; [9]) of 9 µg/mL and an MIC (Neisseria gonorrhoea; alone) of 1.15 µg/mL. The MIC (Neisseria gonorrhoea; [9]) was 0.6 µg/mL, the MIC (Ducrey's bacillus; alone) was 75 µg/mL and the MIC (Ducrey's bacillus; [9]) was 62 µg/mL. The MIC (Staphylococcus aureus; alone) was 1.56 µg/mL, the MIC (Staphylococcus aureus; [9]) was 1 µg/mL and the MIC (Aspergillus niger; alone) was 85 µg/mL. For the same compound, the MIC (Aspergillus niger; [9]) was 80 µg/mL, the “MIC of benzalkonium chloride” value ([6]; alone) was 4 µg/mL and the “MIC of benzalkonium chloride” value [6, 10] was 3.6 µg/mL. The “MIC of benzalkonium chloride” value ([7]; alone) was 30 µg/mL, the “MIC of benzalkonium chloride” value [7, 10] was 26 µg/mL and the MIC (Proteus vulgaris; alone) was 25 µg/mL. For the same compound, the MIC (Proteus vulgaris; [11]) was 18.5 µg/mL, the MIC (Haemophilus influenzae; alone) was 200 µg/mL and the MIC (Haemophilus influenzae; [11]) was 150 µg/mL. The MIC ([8]; alone) was 50 µg/mL and the MIC [8, 11] was 25 µg/mL.
